Measurements published in patent publication US20250179059A1 (The Regents of the University of California, priority 2021, published 2025).
Like-named read-outs stand apart in the source and are kept apart here.

Assays:
[1] = target: T1, human BRD4 bromodomain II (Homo sapiens, UniProt O60885); experiment: Bromodomain binding assay (AlphaScreen), BRD4 BDII
T1 construct: human BRD4 bromodomain II [based on Genbank NM_058243, residues 349-460]; host or cells: E. coli
Procedure, shortened: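 AlphaScreen competition with biotinylated H4 peptide (aa 1-21, K5/K8/K12/K16Ac), using nickel-chelate acceptor and streptavidin donor beads. Targets were His6-BRD4 BDI (44-170) or BDII (349-460), with a 30 min compound preincubation over a 10-point 3-fold series. IC50 was fitted from percentage peptide binding.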

[2] = system: human SKM-1 acute myeloid leukemia cells; experiment: SKM-1 antiproliferation cell-based assay (ATPlite); conditions: Homo sapiens
Procedure, shortened: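 Log-phase cells in RPMI 1640/15% FBS were seeded at 34722 cells/mL and exposed for 4 days to nine-concentration DMSO serial dilutions in triplicate. Viability was read as ATP luminescence (ATPlite 1step), and IC50 values came from variable-slope non-linear regression.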

[3] = BRD4 BDII AlphaScreen assay, read-out: BRD4 BD2 IC50
[4] = SKM-1, SKM-1 antiproliferation assay
[5] = AlphaScreen assay, Table C2, read-out: BRD4 BDII IC50
[6] = SKM-1, 96 h, SKM-1 antiproliferation assay, 4 days, Table C2

IC50 [1, 3] [nM]	GI50 [2, 4] [nM]	IC50 [1, 5] [nM]	GI50 [2, 6] [nM]	Compound
1 to 10	300 to 3000			Cn1ccn(-c2ccc(-c3cc(C(F)(F)F)cc(-c4cccc(N5CCN(C(C)(C)C)CC5)c4)c3O)cc2Cl)c1=O [Example 1025, 1-(3″-(4-(tert-butyl)piperazin-1-yl)-3-chloro-2′-hydroxy-5′-(trifluoromethyl)-[1,1′:3′,1″-terphenyl]-4-yl)-3-methyl-1H-imidazol-2(3H)-one]
		0.01 to 1	0.3 to 30	Cn1cc(-c2cc(F)cc(-c3ccc(-n4ccn(C)c4=O)c(Cl)c3)c2O)cc(N2CC[C@](C)(N)C2)c1=O [Example 759, (S)-3-(3-amino-3-methylpyrrolidin-1-yl)-5-(3′-chloro-5-fluoro-2-hydroxy-4′-(3-methyl-2-oxo-2,3-dihydro-1H-imidazol-1-yl)-[1,1′-biphenyl]-3-yl)-1-methylpyridin-2(1H)-one]
		1 to 10	0.3 to 30	Cn1ccn(-c2ccc(-c3cc(F)cc(-c4cc(N5CCNCC5)c5cc[nH]c5c4)c3O)cc2Cl)c1=O [Example 479, 1-(3-chloro-5′-fluoro-2′-hydroxy-3′-(4-(piperazin-1-yl)-1H-indol-6-yl)-[1,1′-biphenyl]-4-yl)-3-methyl-1H-imidazol-2(3H)-one]
		10 to 100	300 to 3000	CN1CCN(c2ccc(-c3cccc(-c4cc(CN)cc(N5CCNCC5)c4)c3O)cc2Cl)C1=O [Example 326, 1-(3″-(aminomethyl)-3-chloro-2′-hydroxy-5″-(piperazin-1-yl)-[1,1′:3′,1″-terphenyl]-4-yl)-3-methylimidazolidin-2-one]
		1 to 10	30 to 300	CN[C@H]1CCN(c2cc(-c3cc(F)cc(-c4ccc(N5CCN(C)C5=O)c(Cl)c4)c3O)ccn2)C1 [Example 438, (S)-1-(3-chloro-5′-fluoro-2′-hydroxy-3′-(2-(3-(methylamino)pyrrolidin-1-yl)pyridin-4-yl)-[1,1′-biphenyl]-4-yl)-3-methylimidazolidin-2-one]
		1 to 10	30 to 300	O=C1CCCN1c1ccc(-c2cccc(-c3ccnc(N4CCNCC4)c3)c2O)cc1F [Example 238, 1-(3-fluoro-2′-hydroxy-3′-(2-(piperazin-1-yl)pyridin-4-yl)-[1,1′-biphenyl]-4-yl)pyrrolidin-2-one]
		0.01 to 1	0.3 to 30	C[C@@H]1CN(c2cc(-c3cc(F)cc(-c4ccc(-n5ccn(C)c5=O)c(Cl)c4)c3O)cn3ccnc23)CCN1 [Example 584]
		0.01 to 1	0.3 to 30	CC(C)N1CCN(c2cc(-c3cc(F)cc(-c4ccc(-n5ccn(C)c5=O)c(Cl)c4)c3O)cnc2Cl)CC1 [Example 787, 1-(3-chloro-3′-(6-chloro-5-(4-isopropylpiperazin-1-yl)pyridin-3-yl)-5′-fluoro-2′-hydroxy-[1,1′-biphenyl]-4-yl)-3-methyl-1H-imidazol-2(3H)-one]
		1 to 10	30 to 300	Cn1ccn(-c2ccc(-c3cc(F)cc(-c4ccnc(N5C[C@H](O)[C@@H](F)C5)c4)c3O)cc2Cl)c1=O [Example 786, 1-(3-chloro-5′-fluoro-3′-(2-((3S,4S)-3-fluoro-4-hydroxypyrrolidin-1-yl)pyridin-4-yl)-2′-hydroxy-[1,1′-biphenyl]-4-yl)-3-methyl-1H-imidazol-2(3H)-one]
		1 to 10	30 to 300	Cn1ccn(-c2ccc(-c3cc(F)cc(-c4ccnc(N5CC[C@@H](O)[C@H](N)C5)c4)c3O)cc2Cl)c1=O [Example 487, 1-(3′-(2-((3R,4R)-3-amino-4-hydroxypiperidin-1-yl)pyridin-4-yl)-3-chloro-5′-fluoro-2′-hydroxy-[1,1′-biphenyl]-4-yl)-3-methyl-1H-imidazol-2(3H)-one]
		0.01 to 1	0.3 to 30	Cc1cc(-c2cc(C)nc(N3CC[C@H](N)C3)c2)c(O)c(-c2ccc(-n3ccn(C)c3=O)c(Cl)c2)c1 [Example 518, (S)-1-(3′-(2-(3-aminopyrrolidin-1-yl)-6-methylpyridin-4-yl)-3-chloro-2′-hydroxy-5′-methyl-[1,1′-biphenyl]-4-yl)-3-methyl-1H-imidazol-2(3H)-one]
		> 100	300 to 3000	CC(=O)NC(C)(C)C#Cc1cccc(-c2cc(F)cc(-c3ccc(-n4ccn(C)c4=O)c(Cl)c3)c2O)c1 [Example 795, N-(4-(3″-chloro-5′-fluoro-2′-hydroxy-4″-(3-methyl-2-oxo-2,3-dihydro-1H-imidazol-1-yl)-[1,1′:3′,1″-terphenyl]-3-yl)-2-methylbut-3-yn-2-yl)acetamide]
0.01 to 1	0.3 to 30			COc1ncc(-c2nc(C)cc(-c3ccc(-n4ccn(C)c4=O)c(Cl)c3)c2O)cc1N1CC[C@]2(CCN2C(C)C)C1 [Example 1022, (R)-1-(2-chloro-4-(3-hydroxy-5′-(1-isopropyl-1,6-diazaspiro[3.4]octan-6-yl)-6'-methoxy-6-methyl-[2,3′-bipyridin]-4-yl)phenyl)-3-methyl-1,3-dihydro-2H-imidazol-2-one]
		0.01 to 1	0.3 to 30	CC(C)N1CCN(c2cc(-c3cc(F)cc(-c4ccc(-n5ccn(C)c5=O)c(Cl)c4)c3O)cnn2)CC1 [Example 797, 1-(3-chloro-5′-fluoro-2′-hydroxy-3′-(6-(4-isopropylpiperazin-1-yl)pyridazin-4-yl)-[1,1′-biphenyl]-4-yl)-3-methyl-1H-imidazol-2(3H)-one]
		0.01 to 1	0.3 to 30	Cn1cc(-c2cc(F)cc(-c3ccc(-n4ccn(C)c4=O)c(Cl)c3)c2O)cc(N2CCC3(CCCN3)C2)c1=O (centres unmarked) [Example 687, 5-(3′-chloro-5-fluoro-2-hydroxy-4′-(3-methyl-2-oxo-2,3-dihydro-1H-imidazol-1-yl)-[1,1′-biphenyl]-3-yl)-1-methyl-3-(1,7-diazaspiro[4.4]nonan-7-yl)pyridin-2(1H)-one]
		1 to 10	30 to 300	CN1CCN(c2ccc(-c3cccc(-c4cc(N5CCNCC5)c(=O)n(C)c4)c3O)cc2Cl)C1=O [Example 342, 5-(3′-chloro-2-hydroxy-4′-(3-methyl-2-oxoimidazolidin-1-yl)-[1,1′-biphenyl]-3-yl)-1-methyl-3-(piperazin-1-yl)pyridin-2(1H)-one]
		0.01 to 1	0.3 to 30	Cn1ccn(-c2ccc(-c3cc(F)cc(-c4ccnc(N5CCC6(CCC(=O)N6)C5)c4)c3O)cc2Cl)c1=O (centres unmarked) [Example 736, 7-(4-(3′-chloro-5-fluoro-2-hydroxy-4′-(3-methyl-2-oxo-2,3-dihydro-1H-imidazol-1-yl)-[1,1′-biphenyl]-3-yl)pyridin-2-yl)-1,7-diazaspiro[4.4]nonan-2-one]
		> 100	300 to 3000	CN1CCN(c2c(Cl)cc(-c3cc(F)cc(-c4ccnc(N5CCNCC5)c4)c3O)cc2Cl)C1=O [Example 404, 1-(3,5-dichloro-5′-fluoro-2′-hydroxy-3′-(2-(piperazin-1-yl)pyridin-4-yl)-[1,1′-biphenyl]-4-yl)-3-methylimidazolidin-2-one]
		0.01 to 1	0.3 to 30	C[C@@H]1CN(c2cncc(-c3cc(F)cc(-c4ccc(-n5ccn(C)c5=O)c(Cl)c4)c3O)c2)CCN1 [Example 467, (R)-1-(3-chloro-5′-fluoro-2′-hydroxy-3′-(5-(3-methylpiperazin-1-yl)pyridin-3-yl)-[1,1′-biphenyl]-4-yl)-3-methyl-1H-imidazol-2(3H)-one]
1 to 10	0.3 to 30			CC(C)N1CCC12CCN(c1cc(-c3cc(F)cc(-c4ccc(-n5ccn(C)c5=O)c(Cl)c4)c3O)cnc1N)C2 (centres unmarked) [Example 954, 1-(3′-(6-amino-5-(1-isopropyl-1,6-diazaspiro[3.4]octan-6-yl)pyridin-3-yl)-3-chloro-5′-fluoro-2′-hydroxy-[1,1′-biphenyl]-4-yl)-3-methyl-1H-imidazol-2(3H)-one]
		1 to 10	30 to 300	Cn1ccn(-c2ccc(-c3cc(F)cc(-c4cc(N5CC6CC5CN6)c5cn[nH]c5c4)c3O)cc2Cl)c1=O (centres unmarked) [Example 599, 1-(3′-(4-(2,5-diazabicyclo[2.2.1]heptan-2-yl)-1H-indazol-6-yl)-3-chloro-5′-fluoro-2′-hydroxy-[1,1′-biphenyl]-4-yl)-3-methyl-1H-imidazol-2(3H)-one]
		1 to 10	0.3 to 30	Cn1ccn(-c2ccc(-c3cc(F)cc(-c4cc(-c5ccn[nH]5)nc(N5CCNCC5)c4)c3O)cc2Cl)c1=O [Example 553, 1-(3-chloro-5′-fluoro-2′-hydroxy-3′-(2-(piperazin-1-yl)-6-(1H-pyrazol-5-yl)pyridin-4-yl)-[1,1′-biphenyl]-4-yl)-3-methyl-1H-imidazol-2(3H)-one]
		1 to 10	0.3 to 30	Cc1cc(-c2ccc(-n3ccn(C)c3=O)c(Cl)c2)c(O)c(-c2cc(N3CCNCC3)c3cc[nH]c3c2)c1 [Example 557, 1-(3-chloro-2′-hydroxy-5′-methyl-3′-(4-(piperazin-1-yl)-1H-indol-6-yl)-[1,1′-biphenyl]-4-yl)-3-methyl-1H-imidazol-2(3H)-one]
		> 100	≥ 3000	CN1CCN(c2ccc(-c3cc(F)cc(-c4ccnc(N5CCNc6ccccc65)c4)c3O)cc2Cl)C1=O [Example 483, 1-(3-chloro-3′-(2-(3,4-dihydroquinoxalin-1(2H)-yl)pyridin-4-yl)-5′-fluoro-2′-hydroxy-[1,1′-biphenyl]-4-yl)-3-methylimidazolidin-2-one]
		1 to 10	30 to 300	C[C@@H]1CN(c2cc(-c3cc(F)cc(-c4ccc(-n5ccn(C)c5=O)c(Cl)c4)c3N)ccn2)CCN1 [Example 542, (R)-1-(2′-amino-3-chloro-5′-fluoro-3′-(2-(3-methylpiperazin-1-yl)pyridin-4-yl)-[1,1′-biphenyl]-4-yl)-3-methyl-1H-imidazol-2(3H)-one]
